# According to patent US10925858B2, “S-nitrosoglutathione (GSNO) and GSNO reductase inhibitors for use in therapy” (MUSC FOUNDATION FOR RESEARCH DEVELOPMENT, priority 2017, dated 2021):
# Experiments:
# [1] = system: protein-associated S-nitrosothiols; assay: Assay for protein-associated S-nitrosylation (biotin-switch) in hBMVECs; type: cell-based, human; conditions: various concentrations, incubated 2 hr
# Description: Cell culture: Primary human brain microvascular endothelial cells (hBMVECs) were purchased from Angio-Proteomie (Cat #: cAP-0002, Atlanta, Ga.). The cells were cultured in cell culture flasks or plates precoated with Quick Coating Solution (Angio-Proteomie; Cat #: cAP-01) and maintained in Endothelial Growth Medium (Angio-Proteomie; Cat #: cAP-02) at 37° C. under 5% CO2/95% air. When the cells were almost confluent, the medium was replaced with endothelial basal medium (Angio-Proteomie; Cat #: cAP-03) containing 0.5% fetal bovine serum (FBS; Life Technologies, Grand Island, N.Y.) about 8-12 hours before the experiment. No institutional approval was required for this study. The study was not pre-registered.
# Assay for protein-associated S-nitrosylation: Protein S-Nitrosylation was analyzed by using biotin-switch method as described in our previous reports (Kim et al., 2014; Prasad et al., 2007). hBMVECs were lysed in 250 mM HEPES, pH 7.7, 1 mM EDTA, 0.1 mM neocuproine, 1% Nonidet P-40, 150 mM NaCl, 1 mM phenylmethanesulfonylfluoride, 20 mM methyl methanethiosulfonate (MMTS), 80 μM carmustine, protease inhibitor mixture (Sigma-Aldrich), and mixed with an equal volume of 25 mM HEPES, pH 7.7, 0.1 mM EDTA, 10 μM neocuproine, 5% SDS, 20 mM MMTS and incubated at 50° C. for 20 min. […] Following acetone precipitation, biotinylated (S-nitrosylated) proteins were analyzed by Western analysis. […]
# [2] = system: CD4+ T cells; assay: Ex vivo culture of PLP139-151 immunized T cells from EAE mice, cytokine ELISA; type: in vivo, SJL mice
# [3] = system: tight junction proteins (ZO-1, Occludin, Claudin-5); assay: Real-time PCR, mRNA expression of tight junction proteins in brain microvessels of diabetic mice; type: in vivo
# Description: Male laca mice weighing between 28-32 g were procured from the Central Animal House, Panjab University, Chandigarh. The animals were acclimatized and were fed with standard pellet diet and water ad libitum. The experimental protocols were approved by the Institutional Ethics Committee and were conducted according to Indian National Science Academy (INSA) guidelines for the use and care of experimental animals. The animals were divided into four groups: (i) Control animals received phosphate buffered saline (PBS) throughout the study; (ii) Control+GSNO animals were administered with GSNO 100 μg/kg body weight orally, dissolved in PBS after every 24 h for 8 weeks; (iii) Diabetic animals were injected with STZ at a dose of 40 mg/kg body weight intraperitoneally for 5 days dissolved in 0.1 mol/L citrate buffer, pH 4.5 and Diabetic+GSNO mice were administered GSNO 100 μg/kg body weight orally dissolved in PBS after every 24 h for 8 weeks after the induction of diabetes. Animals were assessed weekly for development of diabetic encephalopathy in terms of memory deficits. All experimental procedures were done on mice at the end of study.
# The microvessels were isolated by the method described by Brooks et al., (2005). Brain tissue was homogenized in microisolation buffer (103 mM NaCl, 4.7 mM KCl, 2.5 mM CaCb, 1.2 mM KH2PO4, 1.2 mM MgSO4, 15 mM HEPES, 2.5 mM NaHCO3, 10 mM D-glucose, 1 mM sodium pyruvate and 10 g/L dextran (64,000 mol wt), pH 7.4) and equal amount of 26% (w/v) dextran was added. […]
# PCR Total RNA was extracted from microvessels obtained from brain tissue using TriReagent®. […] The concentration of RNA obtained was determined by 260/280 nm ratio using a Nanodrop™ Spectrophotometer (Nanodrop™ 1000, Thermo Scientific®, Waltham, USA). The integrity and overall quality of RNA was evaluated using agarose gel electrophoresis. […] The data obtained was analyzed by the LightCycler 480 Software, Version 1.5. […] Glyceraldehyde-3-phosphate dehydrogenase was used as the reference gene and the relative gene expression was determined using delta-delta Ct method as described by Pfaffl et al., (2002).
# [4] = T cells from GSNO (1.0 mg/kg daily from immunization) treated vs untreated EAE mice, TH0 condition
# [5] = T cells from GSNO treated vs untreated EAE mice
# [6] = cortex and hippocampus, diabetic mice + GSNO 100 μg/kg oral 8 weeks, vs diabetic
structure (smiles),measurement,setting,value
"N[C@@H](CCC(=O)N[C@@H](CSN=O)C(=O)NCC(=O)O)C(=O)O [GSNO, S-nitrosoglutathione]",RhoA S-nitrosylation,[1],increased
same,cellular levels of protein-associated S-nitrosothiols,[1],increased
same,IFN-γ production of T cells in response to PLP139-151 stimulation,[2]; [4],comparable levels
same,IL-17 production of T cells in response to PLP139-151 stimulation,[2]; [4],significantly lower levels
same,GM-CSF production under TH1 and TH17 skewing conditions,[2]; [5],similarly increased levels
same,IFN-γ production under TH1 skewing conditions,[2]; [5],comparable amounts
same,IL-10 production under TH1 and TH17 skewing conditions,[2]; [5],significantly higher amounts
same,IL-17 production under TH17 skewing conditions,[2]; [5],EAE group produced higher levels of IL-17 than T cells isolated from GSNO+ EAE group
same,mRNA expression of claudin-5,[3]; GSNO treated diabetic animals,no significant change
same,mRNA expression of ZO-1,[3]; [6],2 fold
same,mRNA expression of occludin,[3]; [6],2 fold
